PMC11054638, “Transport of Non-Steroidal Anti-Inflammatory Drugs across an Oral Mucosa Epithelium In Vitro Model” (Pharmaceutics, 2024)

Assays:
PC3 cells = details: 1500 µM for 24 h ref 60; cited from earlier work
[1] = Transport study across blank inserts without cells; details: Ibuprofen study, mean ± SD
Experimental: First, TEER was measured in cultivation media on the day of experiment. Afterwards, cells and blanks were washed twice with DMEM on the apical (300 µL) and basolateral (900 µL) compartments and selected cells and blanks were treated with DMEM with or without 100 µM probenecid or verapamil on the apical and basolateral side at 37 °C for 30 min. […] To cells which were pre-incubated with probenecid or verapamil, 100 µM probenecid or verapamil was applied apically as well. DMSO content was adapted for cells with no inhibitors, and DMSO and dd-H2O content was adjusted in the basolateral compartment as well in order to apply the same vehicle concentrations on the apical and basolateral compartment. […] Subsequently, duplicates of apical sample were collected, and samples were frozen at −80 °C until further analysis with High-Performance Liquid Chromatography (HPLC).
Mean values of relative fluorescence unit (RFU) or detected area [mAU × min] were used for calculation. For the first timepoint, the clearance [µL] for the detected area was calculated as shown in the formula below (1a), with Abasot1 as the measured area [mAU × min] at the first time point of the basolateral sample, Vbaso as the basolateral volume [µL] and Astock as the area measured for the applied stock solution. […] Clearance [µL] for carboxyfluorescein was calculated with the same formulas using RFU. (1a) Clearance=Abasot1×Vbaso/AStock (1b) Clearancetn=Abasotn×Vbaso/AStock−∑(Abasotn−1 ×3− Abasot1 ×3)
Cleared volume [µL] was calculated by plotting the sum of clearance at all time points over time [min]. The resulting slope PS [µL/min] was calculated inversely. For calculation of the PScell, the inverse PS blanks were subtracted, as shown below in Formula (2). (2) 1/PScell=1/PSall−1/PSblank

[2] = tested on: JAK1, TRAF2 and RELA mRNA in TR146 cells; assay: qPCR of JAK1, TRAF2 and RELA after inflammation study; format: cell-based, human; details: 48 h
Experimental: ® were seeded with cells as described above. […] Prior to treating cells with prepared DMEM solutions, TEER was measured in cultivation media DMEM supplemented with 1% Penicillin/Streptomycin and 10% Fetal Calf Serum. Subsequently, cell layers and blanks were washed with DMEM (without supplements) twice on the apical and basolateral compartment, followed by TEER measurements in DMEM. Media of cells were replaced with previously prepared DMEM solutions. Control media was applied on the blanks. After 48 h treatment at 37 °C, 5% CO2 and 95% humidity TEER was measured. […] Media were immediately collected and measured for the RFU content using the EnSpire as described above. Afterwards, media were stored at -20 °C until further usage. […] For qPCR, samples were analysed as triplicates using the LightCycler480 II (Roche) with the program described in Lin et al. with primers for 18SrRNA (5'-3' forward: [NT], 5'-3' reverse: [NT], Janus Kinase 1 transcript variant a (JAK1tva) (5'-3' forward: [NT], 5'-3' reverse: [NT], JAK1tvb (5'-3' forward: [NT], 5'-3' reverse: [NT], JAK1tvc (5'-3' forward: [NT], 5'-3' reverse: [NT] Receptor Associated Factor 2 (TRAF2) tvb (5'-3' forward: [NT], 5'-3' reverse: […]2tvc (5'-3' forward: [NT], 5'-3' reverse: [NT] and nuclear factor κB (NF-κB) RelA (forward 5'-3': [NT], reverse 5'-3': […]

CC(C)Cc1ccc(C(C)C(=O)O)cc1 (stereo not drawn) [ibuprofen]
COX-2 expression (PC3 cells): upregulation of COX-2 | PS blank ([1]; Probenecid): 0.22 ± 0.02 µL/min | PS blank ([1]; Verapamil): 0.21 ± 0.02 µL/min | PS blank ([1]; w/o Inhibitor): 0.21 ± 0.03 µL/min | RELA mRNA expression ([2]; 100 µM ibuprofen with inflammatory cytokines, p < 0.05): inhibit the increase in RELA | JAK1 and TRAF2 mRNA expression ([2]; cytokines 100 ng/mL each, ibuprofen 100 µM added during inflammation): did not block the upregulation
